Laboratory results reported in patent US8530679B2, “Delta 9—tetrahydrocannabinol processing” (Resolution Chemicals Limited, priority 2007, dated 2013).

Experiments:
[1] = cited from earlier work; for psychomimetic activity: constituents of cannabis
[2] = susceptible to rearrangement and oxidation; cited from earlier work
[3] = stability of Δ9-THC on handling and storage; settings: solution prepared below room temperature, typically below 0° C., in some instances −40° C. and even −78° C.

Structure (SMILES)	psychomimetic activity [1]	psychomimetic activity relative to Δ8-THC ([1]; greater than Δ8-THC) [times]	stability at room temperature [2]	stability / degradation in solution of low boiling point solvent [3]
C=C(C)[C@@H]1CCC(C)=C[C@H]1c1c(O)cc(CCCCC)cc1O [Cannabidiol]	little activity			
CCCCCc1cc2c(c(O)c1C(=O)O)[C@@H]1C=C(C)CC[C@H]1C(C)(C)O2 [THCA-A, Δ9-THC carboxylic acid]	psychomimetically inactive			
CCCCCc1cc(O)c2c(c1)OC(C)(C)[C@@H]1CCC(C)=C[C@@H]21 [Δ9-THC, Δ9-tetrahydrocannabinol]		20	relatively unstable	no significant degradation
